According to US20260315507A1, “COMBINATION OF VITAMINS AND OLIGOSACCHARIDES FOR ENHANCING BONE GROWTH AND/OR BONE STRENGTH” (SOCIÉTÉ DES PRODUITS NESTLÉ S.A., priority 2023, published 2026):

How the values were obtained:
[1] = test system: osteocalcin mRNA in MC3T3-E1 subclone 4 cells; experiment: Osteocalcin mRNA levels (qPCR) in pre-osteoblastic cell line; assay type: cell-based; conditions: 21 days of differentiation, without ascorbic acid; 3 μM menaquinone-7, 1 nM 1α,25-dihydroxyvitamin D3 or 100 nM all-trans-retinoic acid; FIG. 1B
Description: (§1) The pre-osteoblastic cell line MC3T3-E1 subclone 4 (CRL-2593) was purchased from ATCC (Manassas; Virginia, USA). Cells were maintained in growth medium (GM) composed of ascorbic acid-free αMEM (ThermoFisher Scientific), supplemented with 10% fetal calf serum (FCS, ThermoFisher Scientific) and 1% penicillin/streptomycin. All culture media were refreshed every 2-3 days. Cells were passaged with trypsin/EDTA solution at less than 80% confluence. To induce differentiation into osteoblasts, cells were seeded at 5×10^4 cells/cm^2 and grown to confluency in GM for 24 h. Then, the medium was switched to differentiation medium (DM) composed of GM supplemented with 10 mM β-glycerophosphate and treatment solutions of interest. Ascorbic acid 50 μg/ml was also added to the DM depending on the experiment.
MC3T3-E1 subclone 4 cells were differentiated for 21 days (in DM without ascorbic acid except for the positive control) or 28 days (in DM containing ascorbic acid). Cells were then collected for gene expression analysis. […] RNA concentrations were measured using the DropSense96 (TRINEAN, Gentbrugge, Belgium).
cDNAs were synthetized using High-Capacity cDNA Reverse Transcription Kit (AppliedBiosystems; Waltham, Massachusetts, USA) according to the manufacturer's instructions. […] The relative gene expression was evaluated via the 2^-ΔCt method.

[2] = test system: MC3T3-E1 subclone 4 cells; experiment: Osteoblast alkaline phosphatase (ALP) activity in pre-osteoblastic cell line; assay type: cell-based; conditions: 7 days of differentiation, without ascorbic acid; 3 μM menaquinone-7, 1 nM 1α,25-dihydroxyvitamin D3 or 100 nM all-trans-retinoic acid; FIG. 1A
Description: as §1, with “experiment. […]” for “experiment.”
After 7 days of differentiation, cells were then collected for alkaline phosphatase (ALP) activity measurement as described previously with minor modifications. […] Enzymatic reaction was monitored at 405 nm after 4-Nitrophenyl phosphate disodium salt hexahydrate addition. Michaelis-Menten kinetics were evaluated at 30° C. for 30 min. […] The activity value was normalized by protein content measured via the Pierce BCA Protein Assay Kit (ThermoFisher Scientific) according to the manufacturer's instructions.

Compound | effect on osteocalcin expression (mRNA) [1] | effect on ALP activity (marker of osteoblast differentiation) [2]
CC1=C(/C=C/C(C)=C/C=C/C(C)=C/C(=O)O)C(C)(C)CCC1 [vitamin A, all-trans-retinoic acid] | no significant effect | 
C=C1/C(=C\C=C2/CCC[C@]3(C)[C@@H]([C@H](C)CCCC(C)(C)O)CC[C@@H]23)C[C@@H](O)C[C@@H]1O [vitamin D, 1α,25-Dihydroxyvitamin D3] | no significant effect | 
CC(C)=CCC/C(C)=C/CC/C(C)=C/CC/C(C)=C/CC/C(C)=C/CC/C(C)=C/CC/C(C)=C/CC1=C(C)C(=O)c2ccccc2C1=O [vitamin K2, menaquinone-7] |  | no significant effect
